Measurements from the supplement of paper PMC10307832.

Tests used:
Assay in all cases: relative viability (nuclei count vs DMSO), 5 days (fraction); higher = more cells survive
Gemcitabine = compound: Nc1ccn([C@@H]2O[C@H](CO)[C@@H](O)C2(F)F)c(=O)n1 [Gemcitabine]
Procedure, shortened: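 Viability was defined as treated-well nuclei divided by vehicle-well nuclei, with the median taken over replicate plates. Cells from lung cancer lines sat overnight at 37 °C in 1536-well plates, received five √10-spaced library-drug doses by pinning on vehicle-anchored plates, and grew 5 days without medium change before one-step fixation, permeabilisation and Hoechst staining, 4× imaging and MetaXpress nuclear counts. Only plates with control CV under 25% and at least one doubling were kept.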

Gemcitabine + Olaparib = compound: Nc1ccn([C@@H]2O[C@H](CO)[C@@H](O)C2(F)F)c(=O)n1 [Gemcitabine] + O=C(c1cc(Cc2n[nH]c(=O)c3ccccc23)ccc1F)N1CCN(C(=O)C2CC2)CC1 [Olaparib] (partner 8 µM)
Procedure, shortened: (§1)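 One day after seeding in 1536-well plates, lung cancer cell lines were dosed by pin tool. Dosing was either single-drug or a fixed anchor-drug dose plus five library-drug doses (not always all listed) in √10 steps. After 5 days, nuclei were stained in one fix-and-stain step and counted on 4× images, and relative viability is the nuclei count of treated wells over that of vehicle wells, given as the median of duplicate plates.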

Gemcitabine + Phenformin = compound: Nc1ccn([C@@H]2O[C@H](CO)[C@@H](O)C2(F)F)c(=O)n1 [Gemcitabine] + N=C(N)NC(=N)NCCc1ccccc1 [Phenformin] (partner 250 µM)
Procedure, shortened: as §1

Gemcitabine + Trametinib = compound: Nc1ccn([C@@H]2O[C@H](CO)[C@@H](O)C2(F)F)c(=O)n1 [Gemcitabine] + CC(=O)Nc1cccc(-n2c(=O)n(C3CC3)c(=O)c3c(Nc4ccc(I)cc4F)n(C)c(=O)c(C)c32)c1 [Trametinib] (partner 0.02 µM)
Procedure, shortened: as §1

Row | Cell Line | relative viability (Gemcitabine; 0.001 µM) | relative viability (Gemcitabine; 0.003162 µM) | relative viability (Gemcitabine; 0.01 µM) | relative viability (Gemcitabine; 0.03162 µM) | relative viability (Gemcitabine; 0.1 µM) | relative viability (Gemcitabine + Olaparib; first compound 0.001 µM) | relative viability (Gemcitabine + Olaparib; first compound 0.003162 µM) | relative viability (Gemcitabine + Olaparib; first compound 0.01 µM) | relative viability (Gemcitabine + Olaparib; first compound 0.03162 µM) | relative viability (Gemcitabine + Olaparib; first compound 0.1 µM) | relative viability (Gemcitabine + Phenformin; first compound 0.001 µM) | relative viability (Gemcitabine + Phenformin; first compound 0.003162 µM) | relative viability (Gemcitabine + Phenformin; first compound 0.01 µM) | relative viability (Gemcitabine + Phenformin; first compound 0.03162 µM) | relative viability (Gemcitabine + Phenformin; first compound 0.1 µM) | relative viability (Gemcitabine + Trametinib; first compound 0.001 µM) | relative viability (Gemcitabine + Trametinib; first compound 0.003162 µM) | relative viability (Gemcitabine + Trametinib; first compound 0.01 µM) | relative viability (Gemcitabine + Trametinib; first compound 0.03162 µM) | relative viability (Gemcitabine + Trametinib; first compound 0.1 µM)
1 | NCI-H1437 | 1.01 | 0.854 | 0.705 | 0.362 | 0.21 | 0.622 | 0.781 | 0.488 | 0.325 | 0.225 | 0.313 | 0.213 | 0.193 | 0.17 | 0.112 | 0.523 | 0.611 | 0.384 | 0.241 | 0.164
2 | NCI-H2085 | 1.05 | 0.954 | 0.852 | 0.792 | 0.439 | 0.756 | 0.786 | 0.699 | 0.597 | 0.426 | 0.79 | 0.61 | 0.422 | 0.282 | 0.271 | 0.512 | 0.589 | 0.472 | 0.174 | 0.226
3 | H3255 | 0.981 | 0.781 | 0.631 | 0.297 | 0.198 | 0.573 | 0.528 | 0.451 | 0.269 | 0.242 | 0.352 | 0.266 | 0.31 | 0.368 | 0.302 | 0.608 | 0.517 | 0.514 | 0.318 | 0.271
4 | NCI-H650 | 0.878 | 0.316 | 0.195 | 0.157 | 0.165 | 0.364 | 0.241 | 0.113 | 0.115 | 0.102 | 0.387 | 0.255 | 0.202 | 0.158 | 0.168 | 0.809 | 0.469 | 0.126 | 0.141 | 0.129
5 | LCLC-103H | 0.933 | 1.07 | 1 | 0.769 | 0.376 | 0.771 | 0.758 | 0.734 | 0.58 | 0.367 | 0.321 | 0.318 | 0.279 | 0.198 | 0.193 | 0.61 | 0.695 | 0.709 | 0.712 | 0.56
6 | LOU-NH91 | 0.982 | 0.788 | 0.585 | 0.338 | 0.301 | 0.92 | 0.781 | 0.501 | 0.223 | 0.264 | 0.723 | 0.498 | 0.442 | 0.225 | 0.21 | 0.787 | 0.762 | 0.578 | 0.466 | 0.358
7 | NCI-H1650 | 1.04 | 0.572 | 0.271 | 0.154 | 0.163 | 0.886 | 0.522 | 0.479 | 0.12 | 0.122 | 0.437 | 0.202 | 0.154 | 0.129 | 0.121 | 0.556 | 0.337 | 0.208 | 0.174 | 0.137
8 | NCI-H3122 | 0.975 | 1.04 | 0.913 | 0.214 | 0.14 | 0.622 | 0.625 | 0.396 | 0.136 | 0.107 | 0.436 | 0.322 | 0.165 | 0.13 | 0.121 | 0.219 | 0.237 | 0.174 | 0.141 | 0.0965
9 | PC-3 [JPC-3] | 1.1 | 0.779 | 0.771 | 0.36 | 0.373 | 1.24 | 0.614 | 0.49 | 0.478 | 0.349 | 0.503 | 0.446 | 0.365 | 0.325 | 0.287 | 0.73 | 0.424 | 0.469 | 0.426 | 0.417
10 | NCI-H1651 | 0.987 | 0.955 | 0.929 | 0.285 | 0.141 | 0.182 | 0.193 | 0.187 | 0.138 | 0.075 | 0.392 | 0.359 | 0.335 | 0.151 | 0.155 | 0.828 | 0.813 | 0.826 | 0.185 | 0.114
11 | NCI-H2087 | 1.04 | 0.852 | 0.349 | 0.132 | 0.118 | 0.69 | 0.413 | 0.254 | 0.0942 | 0.0872 | 0.455 | 0.231 | 0.149 | 0.108 | 0.113 | 0.191 | 0.204 | 0.141 | 0.121 | 0.0794
